How the values were obtained:
[1] = test system: Aspergillus niger ATCC 16404; test: Minimum inhibitory concentration (PCPC protocol); type: cell-based; details: Mold
Experimental: (§1) The MIC (minimum inhibitory concentrations) of N-capryloyl L-glutamine and glyceryl monoundecylenate and 1:1 mixture (by weight) of the two antimicrobials against various microbes are determined as per PCPC (Personal Care Product Council, Washington, USA) protocol.

[2] = test system: Burkholderia cepacia ATCC 25416; test: Minimum inhibitory concentration (PCPC protocol); type: cell-based; details: Gram negative
Experimental: as §1

[3] = test system: Candida albicans ATCC 10231; test: Minimum inhibitory concentration (PCPC protocol); type: cell-based; details: Yeast
Experimental: as §1

[4] = test system: Candida glabrata ATCC 66032; test: Minimum inhibitory concentration (PCPC protocol); type: cell-based; details: Yeast
Experimental: as §1

[5] = test system: Corynebacterium xerosis ATCC 373; test: Minimum inhibitory concentration (PCPC protocol); type: cell-based; details: Gram positive
Experimental: as §1

[6] = test system: Cutibacterium acnes ATCC 6919; test: Minimum inhibitory concentration (PCPC protocol); type: cell-based; details: Gram positive
Experimental: as §1

[7] = test system: Escherichia coli ATCC 8739; test: Minimum inhibitory concentration (PCPC protocol); type: cell-based; details: Gram negative
Experimental: as §1

[8] = test system: Gardnerella vaginalis ATCC 14018; test: Minimum inhibitory concentration (PCPC protocol); type: cell-based; details: Gram variable
Experimental: as §1

[9] = test system: Malassezia furfur ATCC 14521; test: Minimum inhibitory concentration (PCPC protocol); type: cell-based; details: Yeast
Experimental: as §1

[10] = test system: Malassezia restricta ATCC MYA 4611; test: Minimum inhibitory concentration (PCPC protocol); type: cell-based; details: Yeast
Experimental: as §1

[11] = test system: Micrococcus luteus NCIM 2103; test: Minimum inhibitory concentration (PCPC protocol); type: cell-based; details: Gram positive
Experimental: as §1

[12] = test system: Pseudomonas aeruginosa ATCC 15442; test: Minimum inhibitory concentration (PCPC protocol); type: cell-based; details: Gram negative
Experimental: as §1

[13] = test system: Staphylococcus aureus ATCC 6538; test: Minimum inhibitory concentration (PCPC protocol); type: cell-based; details: Gram positive; b76: at skin pH of 5.5
Experimental: as §1

[14] = test system: Staphylococcus epidermidis NCIM 2493; test: Minimum inhibitory concentration (PCPC protocol); type: cell-based; details: Gram positive, b76: at skin pH of 5.5
Experimental: as §1

[15] = test system: Staphylococcus hominis MTCC 8980; test: Minimum inhibitory concentration (PCPC protocol); type: cell-based; details: Gram positive
Experimental: as §1

Malassezia yeast = test: Minimum inhibitory concentration, Malassezia yeast; type: cell-based; details: species not given
Experimental: as §1

bacteria, yeast and mold = test: Challenge test (preservation efficacy) in cleansing surfactant composition of Table 2a; type: cell-based; details: for challenge test / preservation efficacy test: 1.5% level in the same formulation, pH 5.5 and 7.0
From the text: In an embodiment several personal care compositions of various types have been tested for the preservation efficacy of the combination of N-capryloyl L-glutamine and glyceryl monoundecylenate using PCPC (Personal Care Products Council, Washington DC, formerly known as CTFA) protocol ('Evaluation of preservatives to protect cosmetics' by D. Orth in Cosmetics and Toiletries, March 91). […] Both ‘rinse-off’ and ‘leave-on’ formulations (Examples 5 to 10) passed the challenge tests. Using the typical surfactant composition two sets are prepared at different pHs, 5.5 and 7.0. Antimicrobials individually and in combination are tested for preservation efficacy. [table]

[16] = Biodegradability, OECD 301D-Closed Bottle Test
From the text: N-capryloyl L-glutamine and glyceryl monoundecylenate, derived from renewable sources, are compatible with most used ingredients of the personal care compositions.

[17] = antimicrobial 1.5% in total in cleansing formulation of Table 2a, pH 5.5
[18] = antimicrobial 1.5% in total in cleansing formulation of Table 2a, pH 7.0
[19] = antimicrobial 2.0% in cleansing formulation of Table 2a, pH 5.5
[20] = antimicrobial 2.0% in total in cleansing formulation of Table 2a, pH 7.0
[21] = deployed alone at 2% in the surfactant composition, at both acidic and neutral pH (5.5 and 7.0)

MIC in % Aspergillus niger ATCC 16404 [1] [%]	MIC in % Burkholderia cepacia ATCC 25416 [2] [%]	MIC in % Candida albicans ATCC 10231 [3] [%]	MIC in % Candida glabrata ATCC 66032 [4] [%]	MIC in % Corynebacterium xerosis ATCC 373 [5] [%]	MIC in % Cutibacterium acnes ATCC 6919 [6] [%]	MIC in % Escherichia coli ATCC 8739 [7] [%]	MIC in % Gardnerella vaginalis ATCC 14018 [8] [%]	MIC in % Malassezia furfur ATCC 14521 [9] [%]	MIC in % Malassezia restricta ATCC MYA 4611 [10] [%]	MIC in % Micrococcus luteus NCIM 2103 [11] [%]	MIC in % Pseudomonas aeruginosa ATCC 15442 [12] [%]	MIC in % Staphylococcus aureus ATCC 6538 [13] [%]	MIC in % Staphylococcus epidermidis NCIM 2493 [14] [%]	MIC in % Staphylococcus hominis MTCC 8980 [15] [%]	MIC against Malassezia yeast (Malassezia yeast) [%]	SMILES	challenge test / preservation efficacy test (bacteria, yeast and mold)	Challenge Test (bacteria, yeast and mold; [17])	Challenge Test (bacteria, yeast and mold; [18])	Challenge Test (bacteria, yeast and mold; [19])	further results
1	1	0.6	0.6	0.5	0.2	0.7	0.6	0.3	0.4	0.5	0.7	0.3	0.9	0.6	0.2	CCCCCCCC(=O)N[C@@H](CCC(N)=O)C(=O)O [CG, N-capryloyl L-glutamine]	fail to pass the challenge test	Passes	Fails	Passes	MIC in % Staphylococcus epidermidis NCIM 2493 ([14]; listed as N-capryloyl L-glutamine): 1.0%; Challenge Test (bacteria, yeast and mold; [20]): Passes; Challenge Test (bacteria, yeast and mold; [21]): preserve the composition; biodegradability as per OECD 301D-Closed Bottle Test [16]: completely biodegradable
0.8	1	1	0.4	0.5	0.9	1	0.3	0.2	0.2	0.5	1	0.1	1	0.7	0.2	C=CCCCCCCCCC(=O)OCC(O)CO (stereo not shown) [GMU, glyceryl monoundecylenate]	fail to pass the challenge test	Fails	Fails	Passes	MIC in % Staphylococcus epidermidis NCIM 2493 ([14]; listed as glyceryl mono undecylenate): 1.0%; MIC in % Staphylococcus epidermidis NCIM 2493 ([14]; listed as glyceryl monoundecylenate): 0.9%; Challenge Test (bacteria, yeast and mold; [20]): Passes; Challenge Test (bacteria, yeast and mold; [21]): preserve the composition; biodegradability as per OECD 301D-Closed Bottle Test [16]: completely biodegradable

From patent US20250099356A1, “PERSONAL CARE COMPOSITION WITH N-CAPRYLOYL L-GLUTAMINE AND GLYCERYL MONOUNDECYLENATE AS PRESERVATIVE” (GALAXY SURFACTANTS LTD., priority 2024, published 2025)
